# The source made the active and inactive calls. The rule behind the calls is not given here.
# Experiments:
# [1] = molecular target: Nitric oxide synthase, inducible (Homo sapiens, UniProt P35228); test: Inhibition of iNOS in human A172 cells after 18 to 24 hrs; type: cell-based, A 172
# [2] = molecular target: T1, Nitric oxide synthase 3 (Homo sapiens) (UniProt P29474); test: Inhibition of eNOS
# T1 sequence (whole entry): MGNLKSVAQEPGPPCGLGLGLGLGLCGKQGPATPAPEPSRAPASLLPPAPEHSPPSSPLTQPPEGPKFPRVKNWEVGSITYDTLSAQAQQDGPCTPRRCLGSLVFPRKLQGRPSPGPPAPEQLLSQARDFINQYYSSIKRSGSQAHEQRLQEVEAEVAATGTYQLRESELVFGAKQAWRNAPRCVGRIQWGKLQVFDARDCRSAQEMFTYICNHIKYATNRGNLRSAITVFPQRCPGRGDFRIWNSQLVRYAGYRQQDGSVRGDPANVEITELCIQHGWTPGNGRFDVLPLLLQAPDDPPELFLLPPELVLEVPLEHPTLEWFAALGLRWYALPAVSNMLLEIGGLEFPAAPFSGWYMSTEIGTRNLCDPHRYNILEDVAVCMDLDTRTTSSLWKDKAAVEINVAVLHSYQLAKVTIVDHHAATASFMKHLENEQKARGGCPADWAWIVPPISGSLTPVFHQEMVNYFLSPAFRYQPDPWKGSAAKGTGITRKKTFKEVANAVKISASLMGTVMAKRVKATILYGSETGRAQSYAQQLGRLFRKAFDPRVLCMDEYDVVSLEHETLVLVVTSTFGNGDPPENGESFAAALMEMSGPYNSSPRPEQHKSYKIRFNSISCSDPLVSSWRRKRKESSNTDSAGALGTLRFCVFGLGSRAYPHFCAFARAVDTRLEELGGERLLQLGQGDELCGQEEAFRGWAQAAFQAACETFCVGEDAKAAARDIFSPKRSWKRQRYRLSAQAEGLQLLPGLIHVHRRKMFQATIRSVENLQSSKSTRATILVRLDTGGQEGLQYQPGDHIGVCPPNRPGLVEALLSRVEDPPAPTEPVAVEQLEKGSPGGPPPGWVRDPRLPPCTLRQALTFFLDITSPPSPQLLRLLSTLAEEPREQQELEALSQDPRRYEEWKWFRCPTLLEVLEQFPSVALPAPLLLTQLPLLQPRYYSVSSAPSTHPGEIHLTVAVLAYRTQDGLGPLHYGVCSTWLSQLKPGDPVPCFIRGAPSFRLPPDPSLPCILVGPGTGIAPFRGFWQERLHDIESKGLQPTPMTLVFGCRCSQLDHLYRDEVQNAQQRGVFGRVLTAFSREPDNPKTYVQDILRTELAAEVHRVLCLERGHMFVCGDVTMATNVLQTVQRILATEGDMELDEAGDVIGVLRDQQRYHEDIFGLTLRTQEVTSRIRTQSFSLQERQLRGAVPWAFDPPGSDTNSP
# [3] = molecular target: Nitric oxide synthase 1 (Homo sapiens) (UniProt P29475); test: Inhibition of bNOS
# Sequence of Nitric oxide synthase 1 (Homo sapiens) (P29475 whole entry): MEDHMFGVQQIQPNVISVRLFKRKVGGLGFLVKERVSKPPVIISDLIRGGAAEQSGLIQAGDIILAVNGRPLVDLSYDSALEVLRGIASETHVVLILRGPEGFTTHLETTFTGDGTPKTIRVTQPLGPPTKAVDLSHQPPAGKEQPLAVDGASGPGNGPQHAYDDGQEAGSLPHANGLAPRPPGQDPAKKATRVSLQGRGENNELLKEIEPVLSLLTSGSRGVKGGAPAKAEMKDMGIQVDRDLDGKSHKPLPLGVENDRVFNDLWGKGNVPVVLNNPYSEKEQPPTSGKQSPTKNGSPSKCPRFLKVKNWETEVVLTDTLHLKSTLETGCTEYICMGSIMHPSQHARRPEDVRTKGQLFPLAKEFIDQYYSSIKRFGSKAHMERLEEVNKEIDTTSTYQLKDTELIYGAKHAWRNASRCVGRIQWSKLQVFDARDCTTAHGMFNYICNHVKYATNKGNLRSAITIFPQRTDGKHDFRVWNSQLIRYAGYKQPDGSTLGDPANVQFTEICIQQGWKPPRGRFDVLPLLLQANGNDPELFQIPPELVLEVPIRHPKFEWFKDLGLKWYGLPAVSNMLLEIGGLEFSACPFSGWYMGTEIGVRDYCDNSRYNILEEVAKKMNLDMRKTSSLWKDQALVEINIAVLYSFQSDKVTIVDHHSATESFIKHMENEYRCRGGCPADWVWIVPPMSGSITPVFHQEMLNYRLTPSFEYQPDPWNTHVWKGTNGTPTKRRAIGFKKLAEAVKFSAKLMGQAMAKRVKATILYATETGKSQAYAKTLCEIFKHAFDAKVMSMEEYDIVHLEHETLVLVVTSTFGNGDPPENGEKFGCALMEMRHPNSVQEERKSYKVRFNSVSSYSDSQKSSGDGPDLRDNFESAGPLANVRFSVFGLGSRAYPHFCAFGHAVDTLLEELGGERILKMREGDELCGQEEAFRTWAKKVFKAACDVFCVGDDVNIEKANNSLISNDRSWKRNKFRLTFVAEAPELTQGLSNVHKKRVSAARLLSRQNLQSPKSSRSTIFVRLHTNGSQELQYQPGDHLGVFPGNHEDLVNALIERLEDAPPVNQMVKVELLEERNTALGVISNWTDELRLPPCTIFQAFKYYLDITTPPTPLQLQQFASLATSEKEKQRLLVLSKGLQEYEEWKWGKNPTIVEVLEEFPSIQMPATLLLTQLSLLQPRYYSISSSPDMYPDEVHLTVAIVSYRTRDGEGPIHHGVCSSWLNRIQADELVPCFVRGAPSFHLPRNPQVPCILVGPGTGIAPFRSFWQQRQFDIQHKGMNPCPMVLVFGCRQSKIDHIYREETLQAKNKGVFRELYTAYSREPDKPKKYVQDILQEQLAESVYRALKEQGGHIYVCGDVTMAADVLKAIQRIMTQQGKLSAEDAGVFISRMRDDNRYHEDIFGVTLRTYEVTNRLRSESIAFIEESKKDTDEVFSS
# Sequence of Nitric oxide synthase, inducible (P35228 whole entry): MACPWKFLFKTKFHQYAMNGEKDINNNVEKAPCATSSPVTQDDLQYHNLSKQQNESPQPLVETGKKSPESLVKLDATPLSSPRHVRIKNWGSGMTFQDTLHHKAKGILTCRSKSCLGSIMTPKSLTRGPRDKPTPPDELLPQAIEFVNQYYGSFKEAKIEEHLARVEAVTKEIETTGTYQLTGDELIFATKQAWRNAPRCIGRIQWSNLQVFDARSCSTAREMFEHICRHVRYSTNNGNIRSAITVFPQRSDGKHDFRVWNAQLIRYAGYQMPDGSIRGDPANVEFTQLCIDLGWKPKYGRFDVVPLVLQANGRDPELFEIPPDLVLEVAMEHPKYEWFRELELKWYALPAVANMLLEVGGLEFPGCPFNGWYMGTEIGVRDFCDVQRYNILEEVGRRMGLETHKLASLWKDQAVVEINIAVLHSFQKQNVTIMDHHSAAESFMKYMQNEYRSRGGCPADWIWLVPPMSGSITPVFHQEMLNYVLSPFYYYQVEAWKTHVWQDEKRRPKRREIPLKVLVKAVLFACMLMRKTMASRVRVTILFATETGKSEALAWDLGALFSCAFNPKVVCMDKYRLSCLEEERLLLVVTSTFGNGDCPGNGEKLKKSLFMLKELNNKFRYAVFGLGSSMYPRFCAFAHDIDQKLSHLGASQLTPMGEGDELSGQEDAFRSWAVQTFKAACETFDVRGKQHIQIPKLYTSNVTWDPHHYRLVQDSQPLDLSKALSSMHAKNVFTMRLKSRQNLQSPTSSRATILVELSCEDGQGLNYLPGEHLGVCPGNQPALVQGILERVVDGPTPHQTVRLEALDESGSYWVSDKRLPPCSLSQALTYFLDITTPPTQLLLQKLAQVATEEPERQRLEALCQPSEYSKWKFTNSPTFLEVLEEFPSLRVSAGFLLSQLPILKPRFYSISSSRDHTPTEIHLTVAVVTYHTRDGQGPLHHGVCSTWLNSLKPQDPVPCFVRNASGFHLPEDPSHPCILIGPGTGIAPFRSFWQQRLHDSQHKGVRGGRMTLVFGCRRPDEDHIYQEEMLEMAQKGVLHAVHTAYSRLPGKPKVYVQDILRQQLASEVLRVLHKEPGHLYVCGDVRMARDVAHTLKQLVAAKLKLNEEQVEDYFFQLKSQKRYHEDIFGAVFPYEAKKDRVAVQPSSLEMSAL
SMILES,IC50 [1],Activity [2],Activity [3]
c1cc(Oc2ccc(-n3ccnc3)cc2)nc(Oc2ccc3c(c2)OCO3)c1,78 nM,–,–
Cc1cc(Oc2ccc3c(c2)OCO3)nc(Oc2ccc(-n3ccnc3)cc2)n1,90 nM,–,–
c1cn(-c2ccc(Oc3cc(Oc4ccc5c(c4)OCO5)ncn3)cc2)cn1,> 10000 nM,–,–
CN(C)CCCN(C)c1cc(Oc2ccc(-n3ccnc3)cc2)nc(Cc2ccc3c(c2)OCO3)n1,220 nM,–,–
Cc1cc(Oc2ccc3c(c2)OCO3)nc(Oc2ccc(-n3ccnc3)cc2C(F)(F)F)n1,220 nM,–,–
Cc1cc(Oc2ccc3c(c2)OCO3)nc(Oc2ccc(-n3ccnc3)cc2Cl)n1,19 nM,–,–
c1cn(-c2ccc(Oc3nccc(Oc4ccc5c(c4)OCO5)n3)cc2)cn1,55 nM,inactive,inactive
c1cn(-c2ccc(Oc3ccnc(Oc4ccc5c(c4)OCO5)n3)cc2)cn1,74 nM,–,–
Cc1c(F)c(Oc2ccc(-n3ccnc3)cc2)nc(Oc2ccc3c(c2)OCO3)c1F,450 nM,–,–
Clc1cc(Oc2ccc(-n3ccnc3)cc2)nc(Cc2ccc3c(c2)OCO3)n1,> 10000 nM,–,–
Cc1cnc(Oc2ccc(-n3ccnc3)cc2)nc1Oc1ccc2c(c1)OCO2,130 nM,–,–
Cc1cc(Oc2ccc3c(c2)OCO3)nc(Oc2ccc(-n3ccnc3)cc2F)n1,92 nM,–,–
c1cn(-c2ccc(Oc3cc(N4CCOCC4)nc(Cc4ccc5c(c4)OCO5)n3)cc2)cn1,830 nM,–,–

# From ChEMBL document CHEMBL1144632, “The rational design of inhibitors of nitric oxide formation by inducible nitric oxide synthase” (Bioorg Med Chem Lett, 2007)
